These results are taken from patent US20060135494A1, “Methods of treating injuries of the nervous system associated with hemorrhage” (priority 2002, published 2006).

Common to all, as to format: in vivo
Test [1] has as its system TUNEL-positive (apoptotic) cells in hemisphere ipsilateral to ICH. In words: TUNEL staining of apoptotic cells in ICH rat brain. The source says:
All animals received humane care in compliance with the institute's guidelines as outlined in “Guide for the Care and Use of Laboratory Animals” prepared by the National Academy of Sciences and published by the National Institutes of Health (NIH publication no. 86-23, revised 1985). Female Sprague-Dawley rats (250-300 grams (g); Harlan Sprague-Dawley, Inc., Indianapolis, Ind.) were anesthesized with an intramuscular injection of a mixture of ketamine and xylazine and set in supine in a Kopf headholder. The right carotid artery, external and internal branches, was exposed and the distal end of the external carotid freed and retracted to line with the internal carotid. A PE-10 polyethylene tube (Becton-Dickinson, Sparks, Md.) was then introduced from the external into the internal carotid artery, and the former was ligated to hold the tube. TUDCA (Calbiochem-Novabiochem Corp., San Diego, Calif.) was dissolved in phosphate buffer, pH 7.4 at 400 milligrams per milliliter (mg/ml). Saline or TUDCA solution (1 milliliter per kilogram body weight (ml/kg bw)) were injected directly into the internal carotid artery, within 5 minutes. Different concentrations of TUDCA (10, 50, 100, and 200 mg/kg bw) were administered 1 hour prior to, or 1, 3, and 6 hours after collagenase injection. The polyethylene tube was finally removed, the end of the external carotid artery cauterized, and the wound closed. To induce stroke injury, the animals were placed in a stereotaxic apparatus and ICH induced by collagenase infusion (Rosenberg et al., Stroke 1990;21:801-807 and Chesney et al., Stroke 1995;26:312-316). In brief, a midline incision was made through the scalp to expose the skull. […]
At 2 days after collagenase infusion, rats were sacrificed for terminal deoxynucleotidyltransferase-mediated dUTP nick end labeling (TUNEL) of apoptotic cells. […] The number of TUNEL-positive cells was counted on a computer screen grid from at least three random fields (400×) within the region adjacent to the hemorrhagic core for each animal.

Another test relates to Bcl-2, Bcl-xL, Bax. As to the kind of experiment: Bcl-2 family protein (immunoblot) and mRNA (RT-PCR) in ICH rat brain. Conditions: TUDCA 10-200 mg/kg bw, ipsilateral hemisphere. The text has this: All animals received humane care in compliance with the institute's guidelines as outlined in “Guide for the Care and Use of Laboratory Animals” prepared by the National Academy of Sciences and published by the National Institutes of Health (NIH publication no. 86-23, revised 1985). Female Sprague-Dawley rats (250-300 grams (g); Harlan Sprague-Dawley, Inc., Indianapolis, Ind.) were anesthesized with an intramuscular injection of a mixture of ketamine and xylazine and set in supine in a Kopf headholder. The right carotid artery, external and internal branches, was exposed and the distal end of the external carotid freed and retracted to line with the internal carotid. A PE-10 polyethylene tube (Becton-Dickinson, Sparks, Md.) was then introduced from the external into the internal carotid artery, and the former was ligated to hold the tube. TUDCA (Calbiochem-Novabiochem Corp., San Diego, Calif.) was dissolved in phosphate buffer, pH 7.4 at […] milligrams per milliliter (mg/ml). Saline or TUDCA solution (1 milliliter per kilogram body weight (ml/kg bw)) were injected directly into the internal carotid artery, within 5 minutes. Different concentrations of TUDCA (10, 50, 100, and 200 mg/kg bw) were administered 1 hour prior to, or 1, 3, and 6 hours after collagenase injection. The polyethylene tube was finally removed, the end of the external carotid artery cauterized, and the wound closed. To induce stroke injury, the animals were placed in a stereotaxic apparatus and ICH induced by collagenase infusion (Rosenberg et al., Stroke 1990;21:801-807 and Chesney et al., Stroke 1995;26:312-316). In brief, a midline incision was made through the scalp to expose the skull. […] (0.5 microliters per minute (μL/min)) of saline containing 0.5 unit (U) bacterial collagenase (type VII; Sigma Chemical Co., St. Louis, Mo.) was made stereotaxically into the striatum with a 10-μl Hamilton syringe at the following coordinates: 0.4 millimeter (mm) anterior and 3.0 mm lateral to bregma and 5.0 mm ventral to the cortical surface. Once the infusion was complete, the Hamilton syringe was left in place for 3 minutes. Body temperature was maintained at 37° C. with a CMA/150 temperature controller throughout the surgery. The rats recovered from surgery in a cage containing food and heated by an incandescent light bulb. Neurological testing was performed at 2 days after induction of ICH. The animals were then sacrificed, and the brains removed and frozen at −70° C. for either serial cryostat sectioning, or RNA and protein extraction. In a subset of animals, serum and brain samples were collected for bile acid analysis.
Changes in Bcl-2 family expression were determined by RT-PCR. Total RNA was extracted from brain tissue using the TRIZOL reagent from Life Technologies, Inc. (Grand Island, N.Y.). For RT-PCR, 5 μg of total RNA was reverse-transcribed using oligo(dT) (IDT, Inc., Coralville, Iowa) and SUPERSCRIPT II reverse transcriptase (Life Technologies Inc.). Specific oligonucleotide primer pairs were incubated with cDNA template for PCR amplification using the Expand High Fidelity PCR System from Roche Diagnostics, GmbH. […] Amplified PCR products were analyzed by agarose gel electrophoresis and ethidium bromide staining. […]
(In general: In western blotting, separated proteins are transferred to a membrane and probed.)

Test [2] has as its system traumatic brain injury (blunt head trauma). As to the kind of experiment: TUNEL-positive cells in blunt head trauma rat model. The text has this: UDCA and TUDCA are nontoxic, endogenously produced, bile acids that act both in vitro and in vivo as potent anti-apoptotic agents. In addition to their effects at preventing mitochondrial dysfunction by inhibiting membrane depolarization and channel formation (Rodrigues et al., J Clin Invest 1998;101:2790-2799 and Rodrigues et al., Cell Death Differ 1999;6:842-854), these molecules may also play key regulatory roles in signal transduction pathways by modulating cytosolic calcium levels and in gene expression by regulating transcription (Guicciari et al., Hepatology 2002;35:971-973). […] Administration of TUDCA almost completely abolished the appearance of TUNEL-positive cells, the activation of caspase-3-like proteases, and the histological damage of the peri-ICH region. These findings are consistent with the inhibition of neuronal apoptosis by TUDCA. Further, most neurons can be rescued by TUDCA up to 3 hours, and some up to 6 hours, from the onset of the hemorrhage, consistent with a delayed activation of neuronal cell death. Thus, at least in this model, many cells remain viable for several hours and can be recovered by an anti-apoptotic agent, provided therapy is initiated within this time window. Finally, TUDCA was also markedly effective at reducing apoptosis after brain injury in a blunt head trauma rat model. […]

Turning to `C[C@H](CCC(=O)NCCS(=O)(=O)O)[C@H]1CC[C@H]2[C@@H]3[C@@H](O)C[C@@H]4C[C@H](O)CC[C@]4(C)[C@H]3CC[C@]12C` [TUDCA, tauroursodeoxycholic acid], in test [1] (100 mg/kg bw TUDCA 1 hour before collagenase, ipsilateral hemisphere, vehicle almost 30%), the “number of apoptotic cells (apoptotic versus total cells)” value is “approximately 10%”. For the same compound, the “TUNEL staining versus vehicle-injected animals” value in test [1] (100 mg/kg bw TUDCA, time-course 1 hour before to 6 hours after collagenase) was “remained markedly lower”. The same compound displayed a reduction of apoptosis in test [1] (TUDCA at greater dosages (than 100 mg/kg bw), 1 hour before collagenase) of more than 65%. For the same compound, in the test on Bcl-2, Bcl-xL, Bax, the “Bax protein” value is recorded as “returned to contralateral hemisphere values”; the “Bcl-XL mRNA (RT-PCR, words)” value is “decreased”; the “Bcl-xL protein levels” value is recorded as “slightly diminished”; the “transcriptional activation of Bcl-2 (mRNA, RT-PCR, words)” value is given as “further increased”. Besides, the “Bcl-2 protein levels” value in the test with Bcl-2, Bcl-xL, Bax (dose-response study) is on record as “remained elevated”. Further, the reduction of apoptosis result in test [2] (24-h pre-injury treatment plus treatments at head trauma and 24 h later) is “more than 50%”. The “number of TUNEL-positive cells per high power field” value in test [2] (24-h pre-injury treatment plus two post-injury treatments, vehicle approximately 27) is recorded as 12.
